Results published in patent publication US20190192521A1, “Methods of Treating Arid1A-Mutated Cancers With HDAC6 Inhibitors and EZH2 Inhibitors” (The Wistar Institute of Anatomy and Biology, priority 2016, published 2019).
Entries after “also recorded” stand apart in the source; their conditions may differ.

Tests used:
[1] = clinical trials for hematopoietic malignancies; Santo et al. Blood 2012; cited from earlier work
[2] = system: Arid1a−/−/Pik3caH1047R clear cell ovarian tumours; test: Arid1a−/−/Pik3caH1047R genetic clear cell ovarian tumour mouse model; format: in vivo, mice; conditions: 50 mg/kg, 21 days
Source text: Arid1a−/−/Pik3caH1047R genetic clear cell ovarian tumour mouse model. All experiments were approved by IACUC. Transgenic mice with latent mutations in Arid1a and Pik3ca were generated by crossing Arid1aflox/floxmice (kindly provided by Dr. Wang, U. Michigan and crossed onto a C57BL/6J background for 9 generations) with R26-Pik3caH1047R mice carrying inducible Pik3ca mutations (Jackson Laboratory, Jax #016977). Gao et al, 2008, Proc Natl Acad Sci USA 105, 6656-6661. Administration of intrabursal adeno-Cre, performed as previously reported, Scarlett et al. 2012, J Exp Med 209, 495-506, induce ovarian clear cell carcinoma in ˜45 days, which is similar to a previous report. All mice were maintained in specific pathogen-free barrier facilities. To induce tumorigenesis, 6-10 weeks old Pik3caH1047R/Arid1aflox/flox female mice were intrabursally injected adenovirus-Cre as previously described. Mice were randomized and treated with ACY1215 (50 mg/kg) or vehicle control for 21 days as previously published. Following treatment mice were sacrificed and the reproductive tracts were removed. The changes in volumes of tumours formed on the injected ovary were calculated against the contrary side non-injected ovary from the same mice.

[3] = system: ovarian clear cell carcinoma cell lines with known ARID1A mutational status; test: colony formation assay, panel of ovarian clear cell carcinoma cell lines with or without ARID1A mutation; format: cell-based, human; conditions: 12 days
Experimental: After 12 days culture, integrated density of colony formed by the indicated cells was quantified using NIH Image J software, and values were normalized to vehicle control. Data represent triplicates from independent experiments. Error bars represent S.E.M. The p-value was calculated via two-tailed t-test.
Indicated ovarian clear cell carcinoma cell lines with known ARID1A mutational status were treated with the indicated concentration of HDAC6 inhibitor CAY10603 or vehicle control in a colony formation assay. After 12 days culture, integrated density of colony formed by the indicated cells was quantified using NIH Image J software, and values were normalized to vehicle control. Data represent triplicates from independent experiments. Error bars represent S.E.M.
Colony formation assays were performed as follows. Cell lines were infected with lentivirus pLKO.1-shRNAs or pLKO.1-control with puromycin selection marker. Infected cells were selected with 1 μg/mL of puromycin for 72 hours and the selected cells were seeded in 12-well or 24-well plates. Cell medium was changed every three days with appropriate drug doses for 14 days or until control wells became confluent. Colonies were washed twice with PBS and fixed with 10% methanol and 10% acetic acid in distilled water. Fixed colonies were stained with 0.005% crystal violet. Integrated density was measured using NIH ImageJ software.

[4] = system: ARID1A-mutated TOV21G and OVISE cells; test: apoptosis (Annexin V, cleaved caspase 3, cleaved PARP p85) in ARID1A-mutated cells; format: cell-based, human
Experimental: FIG. 10 illustrates the finding that HDAC6 inhibition induces apoptosis in ARID1A-inactivated cells. […] Cells were collected and stained for apoptotic markers Annexin V. Apoptotic cells were quantified. Error bars represent standard error of the mean. The p-value was calculated via a two-tailed t-test.
FIG. 11 illustrates the results of the experiments of FIG. 10, but examined for apoptotic markers cleaved caspase 3 and cleaved PARP p85 by immunoblot. GAPDH expression was used as a loading control.
Cells were collected, incubated with an Annexin V-FITC antibody and subjected to flow cytometry analysis. Annexin V-positive cells (apoptotic) were measured with FloJo software. Mean of three independent experiments with S.E.M.
FIG. 78 illustrates percent apoptosis based on Annexin V staining in ARID1A mutated TOV21G cells treated with 1.25 μM ACY1215, 20 μM pan-caspase inhibitor Q-VD-Oph, or a combination for 48 hrs.
FIG. 79 illustrates percent apoptosis based on Annexin V staining in ARID1A mutated TOV21G cells treated with 1.25 μM ACY1215 for 48 hrs with or without knockdown of caspase 3 or caspase 9.
For immunoblotting, protein was isolated as described in Bitler et al. Nat. Med. 2015, 21, 231-238. Briefly, protein was extracted with RIPA buffer (150 mM NaCl, 1% NP40, 0.5% sodium deoxycholate, 0.1% SDS, 50 mM Tris pH 8.0, and 1 mM PMSF). Protein was separated on a SDS-PAGE and transferred to PVDF membrane. For immunoblot of p53 post-translation modifications, cells were treated with a proteasome inhibitor MG132 (10 μM) to stabilize p53 protein.
Annexin V and mitochondria membrane potentials were measured as follows. Phosphatidylserine externalization was detected using an Annexin V staining kit (Life Technologies) following the manufacturer's instructions. To measure change in mitochondria membrane potential cells were treated with 200 nM of tetramethylrhodamine, ethyl ester (TMRE; Abcam) for 15 min at 37° C. Annexin V and TMRE-positive cells were detected using the LSR18 and analyzed with the FlowJo software module.

Compound: O=C(CCCCCCNC(=O)c1cnc(N(c2ccccc2)c2ccccc2)nc1)NO [rocilinostat, 2-(diphenylamino)-N-(7-(hydroxyamino)-7-oxoheptyl)pyrimidine-5-carboxamide]
- tolerability in clinical studies [1]: well-tolerated without a dose-limiting toxicity; also recorded: well-tolerated and show minimal toxicity
- tumour growth [2]: significantly suppressed the tumour growth
- sensitivity of ARID1A-mutated cells compared with ARID1A wild-type cells [3]: more sensitive
- apoptosis induced by the compound after knockdown of Caspase 8 [4]: did not affect the apoptosis
- apoptosis induced by the compound after knockdown of caspase 9 or caspase 3 ([4]; TOV21G, 1.25 μM, 48 hrs): significantly suppressed the apoptosis
- apoptosis: Annexin V positive cells, cleaved caspase 3, cleaved PARP p85 ([4]; rocilinostat 1.25 μM, 48 hours): induced apoptosis
